Key:
[1] = molecular target: T1, Pro-cathepsin H (Homo sapiens) (UniProt P09668); assay: Inhibition of cathepsin H (unknown origin) at 10 uM
T1 sequence (whole entry): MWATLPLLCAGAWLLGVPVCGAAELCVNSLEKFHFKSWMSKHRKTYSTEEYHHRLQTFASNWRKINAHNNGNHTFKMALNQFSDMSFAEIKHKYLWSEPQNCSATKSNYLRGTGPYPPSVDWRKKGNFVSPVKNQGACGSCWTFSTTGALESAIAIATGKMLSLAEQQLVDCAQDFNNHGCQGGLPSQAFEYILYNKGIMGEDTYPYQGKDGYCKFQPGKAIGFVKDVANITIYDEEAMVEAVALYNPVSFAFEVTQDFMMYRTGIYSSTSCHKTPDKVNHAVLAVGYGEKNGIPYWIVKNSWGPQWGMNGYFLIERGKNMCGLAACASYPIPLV

Caspase-3 (Homo sapiens) = Caspase-3 (Homo sapiens) (UniProt P42574); assay: Inhibition of Caspase 3 (unknown origin) at 10 uM
[2] = molecular target: Kallikrein-1 (Homo sapiens) (UniProt P06870); assay: Inhibition of KLK1 (unknown origin) at 10 uM
[3] = molecular target: Urokinase-type plasminogen activator (Homo sapiens) (UniProt P00749); assay: Inhibition of urokinase (unknown origin) at 10 uM
OCI-Ly3 = assay: Antiproliferative activity against human OCILY3 cells by cell proliferation assay; type: functional, cell-based
Trypsin (Homo sapiens) = Trypsin (Homo sapiens) (UniProt P07477+P07478+P35030); assay: Inhibition of trypsin (unknown origin) at 10 uM; type: protein assay
[4] = molecular target: Cathepsin S (Homo sapiens) (UniProt P25774); assay: Inhibition of cathepsin S (unknown origin) at 10 uM
Legumain (Homo sapiens) = molecular target: T2, Legumain (Homo sapiens) (UniProt Q99538); assay: Inhibition of Legumain (unknown origin) at 10 uM
T2 sequence (whole entry): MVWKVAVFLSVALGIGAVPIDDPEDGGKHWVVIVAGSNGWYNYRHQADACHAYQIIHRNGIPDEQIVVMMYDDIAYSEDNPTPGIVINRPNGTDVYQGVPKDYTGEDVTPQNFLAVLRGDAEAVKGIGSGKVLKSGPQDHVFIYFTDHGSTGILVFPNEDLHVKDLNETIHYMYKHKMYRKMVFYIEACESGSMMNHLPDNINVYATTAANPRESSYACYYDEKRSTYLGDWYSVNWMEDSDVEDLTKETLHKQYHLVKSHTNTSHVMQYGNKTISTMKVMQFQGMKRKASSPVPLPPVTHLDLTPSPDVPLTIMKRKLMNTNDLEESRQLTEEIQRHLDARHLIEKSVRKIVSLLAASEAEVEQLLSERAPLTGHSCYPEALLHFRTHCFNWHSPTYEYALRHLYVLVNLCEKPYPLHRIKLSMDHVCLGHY

Caspase-8 (Homo sapiens) = Caspase-8 (Homo sapiens) (UniProt Q14790); assay: Inhibition of Caspase 8 (unknown origin) at 10 uM
Caspase-4 (Homo sapiens) = molecular target: T3, Caspase-4 (Homo sapiens) (UniProt P49662); assay: Inhibition of Caspase 4 (unknown origin) at 10 uM
T3 sequence (whole entry): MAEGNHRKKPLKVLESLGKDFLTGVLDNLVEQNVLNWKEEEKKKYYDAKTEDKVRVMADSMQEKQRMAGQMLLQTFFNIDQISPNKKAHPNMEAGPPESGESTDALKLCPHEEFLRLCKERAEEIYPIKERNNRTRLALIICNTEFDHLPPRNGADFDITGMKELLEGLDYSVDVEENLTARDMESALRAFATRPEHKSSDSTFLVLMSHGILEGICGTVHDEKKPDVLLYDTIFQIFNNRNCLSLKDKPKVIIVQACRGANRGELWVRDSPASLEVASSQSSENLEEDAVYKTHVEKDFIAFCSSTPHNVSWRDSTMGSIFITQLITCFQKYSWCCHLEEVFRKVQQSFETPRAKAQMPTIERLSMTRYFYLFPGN

Homo sapiens [5] = species on record: Homo sapiens; assay: Inhibition of Calpain (unknown origin) at 10 uM
[6] = molecular target: Cathepsin B (Homo sapiens) (UniProt P07858); assay: Inhibition of cathepsin B (unknown origin) at 10 uM
Caspase-1 (Homo sapiens) = Caspase-1 (Homo sapiens) (UniProt P29466); assay: Inhibition of Caspase 1 (unknown origin) at 10 uM
Caspase-6 (Homo sapiens) = molecular target: T4, Caspase-6 (Homo sapiens) (UniProt P55212); assay: Inhibition of Caspase 6 (unknown origin) at 10 uM
T4 sequence (whole entry): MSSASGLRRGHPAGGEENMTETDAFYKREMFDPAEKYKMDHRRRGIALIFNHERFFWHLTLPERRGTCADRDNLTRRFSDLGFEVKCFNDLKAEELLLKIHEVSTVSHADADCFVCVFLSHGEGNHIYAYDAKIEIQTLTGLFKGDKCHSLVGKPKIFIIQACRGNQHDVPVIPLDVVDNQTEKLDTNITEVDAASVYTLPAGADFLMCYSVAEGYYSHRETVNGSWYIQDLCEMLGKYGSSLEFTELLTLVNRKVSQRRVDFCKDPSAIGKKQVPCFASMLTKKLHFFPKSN

[7] = molecular target: Coagulation factor X (Homo sapiens) (UniProt P00742); assay: Inhibition of factor Xa (unknown origin) at 10 uM
[8] = molecular target: Procathepsin L (Homo sapiens) (UniProt P07711); assay: Inhibition of cathepsin L (unknown origin) at 10 uM
[9] = molecular target: Cathepsin E (Homo sapiens) (UniProt P14091); assay: Inhibition of cathepsin E (unknown origin) at 10 uM
[10] = molecular target: Cathepsin L2 (Homo sapiens) (UniProt O60911); assay: Inhibition of cathepsin V (unknown origin) at 10 uM
[11] = molecular target: T5, Cathepsin K (Homo sapiens) (UniProt P43235); assay: Inhibition of cathepsin K (unknown origin) at 10 uM
T5 sequence (whole entry): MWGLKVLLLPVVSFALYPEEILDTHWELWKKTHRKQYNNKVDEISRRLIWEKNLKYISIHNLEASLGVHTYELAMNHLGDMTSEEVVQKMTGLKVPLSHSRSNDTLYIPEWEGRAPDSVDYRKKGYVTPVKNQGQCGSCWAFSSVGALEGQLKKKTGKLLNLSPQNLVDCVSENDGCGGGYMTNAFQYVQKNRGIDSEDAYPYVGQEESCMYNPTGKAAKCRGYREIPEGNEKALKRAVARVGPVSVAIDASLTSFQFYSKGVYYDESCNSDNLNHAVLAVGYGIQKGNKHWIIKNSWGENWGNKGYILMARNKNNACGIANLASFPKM

Caspase-5 (Homo sapiens) = Caspase-5 (Homo sapiens) (UniProt P51878); assay: Inhibition of Caspase 5 (unknown origin) at 10 uM
[12] = molecular target: Prothrombin (Homo sapiens) (UniProt P00734); assay: Inhibition of thrombin (unknown origin) at 10 uM
[13] = molecular target: Cathepsin D (Homo sapiens) (UniProt P07339); assay: Inhibition of cathepsin D (unknown origin) at 10 uM
Homo sapiens [14] = species on record: Homo sapiens; assay: Inhibition of tryptase (unknown origin) at 10 uM
[15] = molecular target: Caspase-10 (Homo sapiens) (UniProt Q92851); assay: Inhibition of Caspase 10 (unknown origin) at 10 uM
[16] = molecular target: Cathepsin G (Homo sapiens) (UniProt P08311); assay: Inhibition of cathepsin G (unknown origin) at 10 uM
Caspase-2 (Homo sapiens) = Caspase-2 (Homo sapiens) (UniProt P42575); assay: Inhibition of Caspase 2 (unknown origin) at 10 uM
Caspase-7 (Homo sapiens) = Caspase-7 (Homo sapiens) (UniProt P55210); assay: Inhibition of Caspase 7 (unknown origin) at 10 uM
Caspase-9 (Homo sapiens) = Caspase-9 (Homo sapiens) (UniProt P55211); assay: Inhibition of Caspase 9 (unknown origin) at 10 uM
[17] = molecular target: Kallikrein-2 (Homo sapiens) (UniProt P20151); assay: Inhibition of KLK2 (unknown origin) at 10 uM
[18] = Metabolic stability in human microsome assessed as half life; type: ADME; set-up: dose or concentration left out as unconfirmed; conditions: microsomes, read-out: Stabilty
[19] = Half life in mouse at 1 mg/kg, iv or 5 mg/kg, po; type: ADME, organism-based; conditions: in vivo
[20] = Oral bioavailability in mouse at 5 mg/kg; type: ADME, organism-based; conditions: in vivo
[21] = Aqueous solubility of the compound at pH 7; type: physicochemical; conditions: aqueous medium
[22] = Clearance in mouse at 1 mg/kg, iv; type: ADME, organism-based; conditions: in vivo
[23] = Plasma protein binding in human assessed as unbound fraction; type: ADME, cell-free; conditions: read-out: PPB
[24] = Metabolic stability in mouse microsome assessed as half life; type: ADME; set-up: dose or concentration left out as unconfirmed; conditions: microsomes, read-out: Stabilty
[25] = AUC (0 to infinity) in mouse at 1 mg/kg, iv or 5 mg/kg, po; type: ADME, organism-based; set-up: dose 5 mg/kg; conditions: in vivo
[26] = Plasma protein binding in mouse assessed as unbound fraction; type: ADME, cell-free; set-up: dose or concentration left out as unconfirmed; conditions: read-out: PPB

Chain of Caspase-8 (Homo sapiens) (Q14790 217-374 limits assumed): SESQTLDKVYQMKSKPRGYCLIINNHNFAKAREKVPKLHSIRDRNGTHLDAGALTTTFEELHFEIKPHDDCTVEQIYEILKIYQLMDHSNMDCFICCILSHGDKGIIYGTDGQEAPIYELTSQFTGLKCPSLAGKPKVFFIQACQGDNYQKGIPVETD
Chain of Caspase-8 (Homo sapiens) (Q14790 385-479 limits assumed): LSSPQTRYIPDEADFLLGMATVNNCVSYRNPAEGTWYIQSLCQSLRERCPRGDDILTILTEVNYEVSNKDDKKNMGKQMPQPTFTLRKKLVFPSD
Chain of Cathepsin S (Homo sapiens) (P25774 115-331 limits assumed): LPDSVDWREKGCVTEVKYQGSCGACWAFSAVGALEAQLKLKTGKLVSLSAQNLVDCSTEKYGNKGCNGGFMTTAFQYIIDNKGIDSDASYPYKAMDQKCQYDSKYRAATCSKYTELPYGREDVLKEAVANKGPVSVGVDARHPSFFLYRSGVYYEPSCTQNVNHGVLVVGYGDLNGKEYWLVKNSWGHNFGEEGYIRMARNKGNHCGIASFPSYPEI
Chain of Kallikrein-2 (Homo sapiens) (P20151 whole entry): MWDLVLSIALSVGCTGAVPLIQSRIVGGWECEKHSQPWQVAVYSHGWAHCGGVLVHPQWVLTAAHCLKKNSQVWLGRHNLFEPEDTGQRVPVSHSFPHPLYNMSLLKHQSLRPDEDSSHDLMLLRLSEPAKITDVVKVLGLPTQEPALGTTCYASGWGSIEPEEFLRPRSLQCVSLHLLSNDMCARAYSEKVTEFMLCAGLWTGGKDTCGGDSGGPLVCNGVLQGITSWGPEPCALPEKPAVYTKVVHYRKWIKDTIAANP
Chain of Caspase-9 (Homo sapiens) (P55211 1-315 limits assumed): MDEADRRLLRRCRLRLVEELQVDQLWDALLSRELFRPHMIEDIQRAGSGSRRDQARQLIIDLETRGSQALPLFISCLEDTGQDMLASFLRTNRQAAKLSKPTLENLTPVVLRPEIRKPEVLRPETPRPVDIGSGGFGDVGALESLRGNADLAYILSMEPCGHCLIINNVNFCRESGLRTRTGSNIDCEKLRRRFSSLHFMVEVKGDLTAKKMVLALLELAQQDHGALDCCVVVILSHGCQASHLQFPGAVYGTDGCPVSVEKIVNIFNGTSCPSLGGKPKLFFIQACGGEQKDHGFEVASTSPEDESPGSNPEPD
Chain of Caspase-9 (Homo sapiens) (P55211 331-416 limits assumed): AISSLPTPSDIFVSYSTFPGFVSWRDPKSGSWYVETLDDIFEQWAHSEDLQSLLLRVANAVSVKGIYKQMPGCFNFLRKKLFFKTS
Chain of Caspase-10 (Homo sapiens) (Q92851 220-415 limits assumed): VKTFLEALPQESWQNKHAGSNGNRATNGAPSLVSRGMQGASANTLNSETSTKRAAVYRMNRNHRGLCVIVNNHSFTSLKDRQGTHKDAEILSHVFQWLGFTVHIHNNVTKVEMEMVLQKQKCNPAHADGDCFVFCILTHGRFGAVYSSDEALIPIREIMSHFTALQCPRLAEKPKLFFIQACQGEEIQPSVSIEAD
Chain of Caspase-10 (Homo sapiens) (Q92851 416-521 limits assumed): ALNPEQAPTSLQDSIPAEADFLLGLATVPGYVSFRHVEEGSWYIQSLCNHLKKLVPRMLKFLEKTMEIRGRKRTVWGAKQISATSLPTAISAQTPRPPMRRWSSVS
Chain of Kallikrein-1 (Homo sapiens) (P06870 25-262 limits assumed): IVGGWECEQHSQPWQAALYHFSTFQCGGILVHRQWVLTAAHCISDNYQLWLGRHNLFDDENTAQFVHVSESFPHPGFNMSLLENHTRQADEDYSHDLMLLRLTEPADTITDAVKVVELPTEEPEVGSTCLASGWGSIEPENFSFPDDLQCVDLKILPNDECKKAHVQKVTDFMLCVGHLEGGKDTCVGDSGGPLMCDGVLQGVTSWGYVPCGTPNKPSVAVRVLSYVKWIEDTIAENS
Chain of Procathepsin L (Homo sapiens) (P07711 114-333 limits assumed): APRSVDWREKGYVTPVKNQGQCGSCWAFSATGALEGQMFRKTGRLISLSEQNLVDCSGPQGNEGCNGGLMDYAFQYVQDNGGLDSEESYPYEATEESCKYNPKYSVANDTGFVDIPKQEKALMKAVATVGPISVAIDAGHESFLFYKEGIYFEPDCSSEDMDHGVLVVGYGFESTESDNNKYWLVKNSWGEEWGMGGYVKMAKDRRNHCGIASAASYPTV
Chain of Caspase-3 (Homo sapiens) (P42574 29-175 limits assumed): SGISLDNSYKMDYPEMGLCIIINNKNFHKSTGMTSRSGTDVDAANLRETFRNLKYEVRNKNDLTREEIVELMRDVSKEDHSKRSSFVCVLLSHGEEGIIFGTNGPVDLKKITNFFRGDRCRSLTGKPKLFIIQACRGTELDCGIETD
Chain of Caspase-3 (Homo sapiens) (P42574 176-277 limits assumed): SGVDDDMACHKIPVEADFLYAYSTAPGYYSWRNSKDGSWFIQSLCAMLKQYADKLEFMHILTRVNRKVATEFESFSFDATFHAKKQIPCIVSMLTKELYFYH
Chain of Caspase-7 (Homo sapiens) (P55210 24-198 limits assumed): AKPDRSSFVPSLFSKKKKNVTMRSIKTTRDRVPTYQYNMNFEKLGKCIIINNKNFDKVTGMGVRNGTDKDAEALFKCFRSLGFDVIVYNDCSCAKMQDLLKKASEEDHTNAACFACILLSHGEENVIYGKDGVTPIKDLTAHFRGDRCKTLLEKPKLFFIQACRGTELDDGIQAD
Chain of Caspase-7 (Homo sapiens) (P55210 207-303 limits assumed): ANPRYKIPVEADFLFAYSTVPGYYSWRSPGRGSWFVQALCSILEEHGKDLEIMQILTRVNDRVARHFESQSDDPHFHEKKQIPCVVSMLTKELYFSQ
Chain of Cathepsin G (Homo sapiens) (P08311 whole entry): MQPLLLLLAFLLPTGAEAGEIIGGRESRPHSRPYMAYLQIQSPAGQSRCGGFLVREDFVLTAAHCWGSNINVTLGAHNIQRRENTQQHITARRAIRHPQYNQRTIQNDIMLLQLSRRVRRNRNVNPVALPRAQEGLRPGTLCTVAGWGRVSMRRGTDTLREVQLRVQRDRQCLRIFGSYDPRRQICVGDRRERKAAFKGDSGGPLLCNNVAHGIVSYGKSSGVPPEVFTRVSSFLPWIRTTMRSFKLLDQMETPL
Chain of Cathepsin E (Homo sapiens) (P14091 whole entry): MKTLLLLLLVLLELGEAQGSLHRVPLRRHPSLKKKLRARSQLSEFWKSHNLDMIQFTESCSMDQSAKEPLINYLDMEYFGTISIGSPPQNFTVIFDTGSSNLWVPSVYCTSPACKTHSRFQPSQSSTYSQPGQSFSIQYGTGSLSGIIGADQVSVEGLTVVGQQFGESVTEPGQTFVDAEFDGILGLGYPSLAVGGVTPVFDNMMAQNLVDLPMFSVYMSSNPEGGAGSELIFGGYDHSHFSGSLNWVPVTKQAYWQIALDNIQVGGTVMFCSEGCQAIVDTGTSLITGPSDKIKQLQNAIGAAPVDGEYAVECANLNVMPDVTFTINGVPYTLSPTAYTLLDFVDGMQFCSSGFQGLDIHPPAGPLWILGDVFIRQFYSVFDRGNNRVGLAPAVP
Chain of Cathepsin L2 (Homo sapiens) (O60911 whole entry): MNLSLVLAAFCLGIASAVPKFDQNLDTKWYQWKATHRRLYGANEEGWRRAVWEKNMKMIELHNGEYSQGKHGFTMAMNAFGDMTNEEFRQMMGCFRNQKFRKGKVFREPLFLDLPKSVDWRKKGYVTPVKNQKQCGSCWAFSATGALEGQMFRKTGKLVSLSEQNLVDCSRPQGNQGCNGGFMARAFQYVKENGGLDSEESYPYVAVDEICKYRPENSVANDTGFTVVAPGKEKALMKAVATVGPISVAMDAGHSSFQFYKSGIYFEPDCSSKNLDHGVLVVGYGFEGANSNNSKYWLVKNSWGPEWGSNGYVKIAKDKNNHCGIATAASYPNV
Chain of Coagulation factor X (Homo sapiens) (P00742 41-179 limits assumed): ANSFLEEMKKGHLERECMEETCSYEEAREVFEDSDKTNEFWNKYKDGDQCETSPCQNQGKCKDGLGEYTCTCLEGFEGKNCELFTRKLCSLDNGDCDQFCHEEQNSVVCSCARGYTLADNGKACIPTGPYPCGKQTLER
Chain of Coagulation factor X (Homo sapiens) (P00742 235-488 limits assumed): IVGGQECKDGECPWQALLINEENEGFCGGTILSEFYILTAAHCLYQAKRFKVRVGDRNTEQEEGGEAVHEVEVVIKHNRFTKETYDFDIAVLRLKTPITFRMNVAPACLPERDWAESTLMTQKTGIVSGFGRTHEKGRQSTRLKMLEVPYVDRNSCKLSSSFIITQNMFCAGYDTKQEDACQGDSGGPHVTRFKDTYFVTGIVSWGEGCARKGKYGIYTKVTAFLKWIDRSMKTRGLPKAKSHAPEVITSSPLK
Chain of Caspase-5 (Homo sapiens) (P51878 137-327 limits assumed): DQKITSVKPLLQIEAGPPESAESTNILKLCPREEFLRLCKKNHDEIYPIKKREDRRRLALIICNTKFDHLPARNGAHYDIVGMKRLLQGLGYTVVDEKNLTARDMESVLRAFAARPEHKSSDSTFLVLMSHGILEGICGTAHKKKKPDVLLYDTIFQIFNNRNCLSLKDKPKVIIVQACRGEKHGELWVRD
Chain of Caspase-5 (Homo sapiens) (P51878 347-434 limits assumed): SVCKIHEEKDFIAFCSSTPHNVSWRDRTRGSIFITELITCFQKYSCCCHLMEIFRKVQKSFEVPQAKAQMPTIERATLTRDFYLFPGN
Chain of Caspase-2 (Homo sapiens) (P42575 170-325 limits assumed): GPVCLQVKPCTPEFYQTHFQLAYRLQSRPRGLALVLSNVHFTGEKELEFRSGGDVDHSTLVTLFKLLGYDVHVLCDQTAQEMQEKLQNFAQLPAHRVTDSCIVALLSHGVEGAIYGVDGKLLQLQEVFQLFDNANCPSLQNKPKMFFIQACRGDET
Chain of Caspase-2 (Homo sapiens) (P42575 334-452 limits assumed): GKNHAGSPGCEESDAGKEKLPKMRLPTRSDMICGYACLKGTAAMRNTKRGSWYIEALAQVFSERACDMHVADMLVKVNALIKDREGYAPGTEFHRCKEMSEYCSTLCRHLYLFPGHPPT

`CO[C@@H](C)c1c(NC(=O)Nc2cnc(-n3nccn3)c(Cl)c2)cnc2cc(Cl)nn12` gave an inhibition [1] of 98.8%, an inhibition (Caspase-3 (Homo sapiens)) of 99.9% and an inhibition [2] of 99.7%. The inhibition [3] was 108%, the EC50 (OCI-Ly3) was 120 nM and the inhibition (Trypsin (Homo sapiens)) was 100%. The inhibition [4] was 100%, the inhibition (Legumain (Homo sapiens)) was 88.4% and the inhibition (Caspase-8 (Homo sapiens)) was 99.7%. For the same compound, the inhibition (Caspase-4 (Homo sapiens)) was 110%, the inhibition (Homo sapiens [5]) was 98.8% and the inhibition [6] was 99.9%. It also gave an inhibition (Caspase-1 (Homo sapiens)) of 99.7%, an inhibition (Caspase-6 (Homo sapiens)) of 88.1% and an inhibition [7] of 99.8%. The inhibition [8] was 99.7%, the inhibition [9] was 100% and the inhibition [10] was 99%. It also gave an inhibition [11] of 102%, an inhibition (Caspase-5 (Homo sapiens)) of 92.6% and an inhibition [12] of 98.7%. It also gave an inhibition [13] of 99.8%, an inhibition (Homo sapiens [14]) of 99.4% and an inhibition [15] of 89.9%. It also gave an inhibition [16] of 92.5%, an inhibition (Caspase-2 (Homo sapiens)) of 87.3% and an inhibition (Caspase-7 (Homo sapiens)) of 98.1%. The inhibition (Caspase-9 (Homo sapiens)) was 89.2% and the inhibition [17] was 94.8%.

With `CCOC(C)c1c(NC(=O)Nc2cnc(-n3nccn3)c(Cl)c2)cnc2sc(C)nc12` (stereo not drawn) the inhibition [1] was 14.1%, the inhibition (Caspase-3 (Homo sapiens)) was 1% and the inhibition [2] was -9%. It also gave an inhibition [3] of 22%, an EC50 (OCI-Ly3) of 360 nM and an inhibition (Trypsin (Homo sapiens)) of 1.9%. For the same compound, the inhibition [4] was 15.7%, the half-life [18] was 0.717 h and the inhibition (Legumain (Homo sapiens)) was -4.2%. The inhibition (Caspase-8 (Homo sapiens)) was 10.8%, the inhibition (Caspase-4 (Homo sapiens)) was 9% and the inhibition (Homo sapiens [5]) was -9.4%. It also gave an inhibition [6] of 1%, an inhibition (Caspase-6 (Homo sapiens)) of -3.9% and a half-life [19] of 3.2 h. The inhibition [8] was 21.9%, the bioavailability [20] was 19% and the solubility [21] was < 4 µM. The clearance [22] was 1.6 mL/min/kg, the fraction unbound [23] was 0.025 and the inhibition [11] was 11.8%. The inhibition [12] was 18.8%, the half-life [24] was 2.12 h and the inhibition (Homo sapiens [14]) was 2%. It also gave an inhibition [15] of -5.2%, an AUC(0-inf) [25] of 10100 ng·h/mL and a fraction unbound [26] of 0.022. It also gave an inhibition (Caspase-9 (Homo sapiens)) of 17.5% and an inhibition [17] of -2.6%.
